Measurements reported in PMC6956567 (Bioorganic & medicinal chemistry letters, 2014).

Legend:
human TRPV1 = human TRPV1 (Homo sapiens, UniProt Q8NER1); assay: FLIPR antagonism of capsaicin; type: cell-based; conditions: for fold better antagonism than linear derivative 15c: Ki(CAP) versus 15c; for antagonism of capsaicin response, in words: capsaicin 100 nM; for fold more potent than the corresponding racemate: Ki(CAP), (S)-isomer versus racemate
[1] = test system: capsaicin-induced hypothermia; assay: Inhibition of capsaicin-induced hypothermia; type: in vivo, mouse; conditions: 15 min before 3 mg/kg ip capsaicin, assayed 30 min after capsaicin
[2] = test system: CCI-induced cold allodynia; assay: Bennett model; type: in vivo, rat

Chain of human TRPV1 (Q8NER1 whole entry): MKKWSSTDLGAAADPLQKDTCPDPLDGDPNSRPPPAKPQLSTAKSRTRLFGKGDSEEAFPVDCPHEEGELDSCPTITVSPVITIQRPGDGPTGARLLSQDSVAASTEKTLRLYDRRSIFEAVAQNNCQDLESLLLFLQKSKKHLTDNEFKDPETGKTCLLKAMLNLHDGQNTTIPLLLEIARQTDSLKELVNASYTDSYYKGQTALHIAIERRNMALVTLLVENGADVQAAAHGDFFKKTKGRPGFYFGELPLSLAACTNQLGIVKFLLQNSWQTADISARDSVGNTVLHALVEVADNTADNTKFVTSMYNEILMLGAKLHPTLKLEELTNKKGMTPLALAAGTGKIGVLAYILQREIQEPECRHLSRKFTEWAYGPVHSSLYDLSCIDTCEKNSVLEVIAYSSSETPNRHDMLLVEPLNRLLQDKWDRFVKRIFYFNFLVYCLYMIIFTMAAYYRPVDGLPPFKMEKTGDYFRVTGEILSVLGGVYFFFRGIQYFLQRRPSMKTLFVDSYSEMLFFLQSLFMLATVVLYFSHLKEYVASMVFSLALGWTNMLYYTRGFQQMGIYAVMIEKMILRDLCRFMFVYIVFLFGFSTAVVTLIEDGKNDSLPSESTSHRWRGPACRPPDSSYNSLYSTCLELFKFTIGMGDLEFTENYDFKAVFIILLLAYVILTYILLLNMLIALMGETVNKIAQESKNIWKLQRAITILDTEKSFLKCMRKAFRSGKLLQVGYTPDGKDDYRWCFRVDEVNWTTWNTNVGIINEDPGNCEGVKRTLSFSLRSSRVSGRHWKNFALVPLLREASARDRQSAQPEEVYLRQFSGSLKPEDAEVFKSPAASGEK

SMILES: CC(C)CCCc1nc(C(F)(F)F)ccc1CNC(=O)C(C)c1ccc(NS(C)(=O)=O)c(F)c1 (stereo not drawn) [15d]
- fold better antagonism than linear derivative 15c (human TRPV1): ca. 2 fold

SMILES: CC(C(=O)NCc1ccc(C(F)(F)F)nc1CCC(C)(C)C)c1ccc(NS(C)(=O)=O)c(F)c1 (stereo not drawn) [15e]
- fold better antagonism than linear derivative 15c (human TRPV1): ca. 2 fold

SMILES: CC(C(=O)NCc1ccc(C(F)(F)F)nc1C1CCCCC1)c1ccc(NS(C)(=O)=O)c(F)c1 (stereo not drawn) [15f]
- CAP-induced hypothermia, inhibition ([1]; 0.1 mg/kg po): 24 % inh.
- CAP-induced hypothermia, inhibition ([1]; 0.3 mg/kg po): 78 % inh.
- Bennett model, maximal possible effect ([2]; 10 mg/kg po): 60 MPE
- anti-allodynic activity, max effect ([2]; at 10 mg/kg po): 60%
- fold better antagonism than linear derivative 15c (human TRPV1): 2.5 fold

SMILES: CCC1CCC(c2nc(C(F)(F)F)ccc2CNC(=O)C(C)c2ccc(NS(C)(=O)=O)c(F)c2)CC1 (stereo not drawn) [15h]
- fold increase in potency compared to 15f (human TRPV1; Ki(CAP) versus 15f): 2 fold

SMILES: CC(C(=O)NCc1ccc(C(F)(F)F)nc1C1CC2CCC1C2)c1ccc(NS(C)(=O)=O)c(F)c1 (stereo not drawn) [15n]
- fold less potent than monocycle 15f (human TRPV1; Ki(CAP) versus 15f): 2.5 fold

SMILES: CC(C)=Cc1nc(C(F)(F)F)ccc1CNC(=O)C(C)c1ccc(NS(C)(=O)=O)c(F)c1 (stereo not drawn) [16a]
- antagonism of capsaicin response, in words (human TRPV1): moderate antagonistic activity

SMILES: CCC/C=C\c1nc(C(F)(F)F)ccc1CNC(=O)C(C)c1ccc(NS(C)(=O)=O)c(F)c1 (stereo not drawn) [16c]
- fold less potent than saturated derivative 15b (human TRPV1; Ki(CAP) versus 15b): 2 fold

SMILES: C[C@H](C(=O)NCc1ccc(C(F)(F)F)nc1C1CCCCC1)c1ccc(NS(C)(=O)=O)c(F)c1 [(S)-15f]
- fold more potent than the corresponding racemate (human TRPV1): 2 fold

SMILES: CCC1CCC(c2nc(C(F)(F)F)ccc2CNC(=O)[C@@H](C)c2ccc(NS(C)(=O)=O)c(F)c2)CC1 (stereo partly drawn) [(S)-15h]
- fold more potent than the corresponding racemate (human TRPV1): ca. 2 fold

SMILES: C[C@H](C(=O)NCc1ccc(C(F)(F)F)nc1C1CCC(C)(C)CC1)c1ccc(NS(C)(=O)=O)c(F)c1 [(S)-15l]
- fold more potent than the corresponding racemate (human TRPV1): ca. 2 fold

SMILES: C[C@H](C(=O)NCc1ccc(C(F)(F)F)nc1C1CC2CCC1C2)c1ccc(NS(C)(=O)=O)c(F)c1 (stereo partly drawn) [(S)-15n]
- fold more potent than the corresponding racemate (human TRPV1): ca. 2 fold

SMILES: CC1CC=C(c2nc(C(F)(F)F)ccc2CNC(=O)[C@@H](C)c2ccc(NS(C)(=O)=O)c(F)c2)CC1 (stereo partly drawn) [(S)-15p]
- fold more potent than the corresponding racemate (human TRPV1): ca. 2 fold

SMILES: C[C@H](C(=O)NCc1ccc(C(F)(F)F)nc1C1=CCC(C(C)(C)C)CC1)c1ccc(NS(C)(=O)=O)c(F)c1 (stereo partly drawn) [(S)-15t]
- fold more potent than the corresponding racemate (human TRPV1): ca. 2 fold

SMILES: C[C@H](C(=O)NCc1ccc(C(F)(F)F)nc1C1=CCC(C)(C)CC1)c1ccc(NS(C)(=O)=O)c(F)c1 [(S)-15u]
- fold more potent than the corresponding racemate (human TRPV1): ca. 2 fold

SMILES: CC(C(=O)NCc1ccc(C(F)(F)F)nc1Cl)c1ccc(NS(C)(=O)=O)c(F)c1 (stereo not drawn) [compound 8]
- antagonism of capsaicin response, in words (human TRPV1): weak antagonists

SMILES: CC(C(=O)NCc1ccc(C(F)(F)F)nc1Br)c1ccc(NS(C)(=O)=O)c(F)c1 (stereo not drawn) [compound 9]
- antagonism of capsaicin response, in words (human TRPV1): weak antagonists

SMILES: CC(C)C[C@H](CN)CC(=O)O [pregabalin, reference compound]
- anti-allodynic activity, max effect ([2]; at 100 mg/kg): 69%
